Activity calls are given as the source filed them. The rule behind the calls is not given here.
Columns and labels:
[1] = biological target: Neuropilin-1 (Homo sapiens) (UniProt O14786); experiment: Inhibition of neuropilin-1 in human A549 cells assessed as decrease in cell migration at 10 to 100 uM after 4 hrs by trans-well assay; format: cell-based
[2] = Cytotoxicity in human A549 cells assessed as decrease in cell viability after 44 hrs by XTT assay; format: functional, cell-based; conditions: A549, 44 h
[3] = biological target: Neuropilin-1 (Homo sapiens) (UniProt O14786); experiment: Inhibition of neuropilin-1 in human DU145 cells assessed as decrease in cell adhesion to extracellular matrix proteins at 10 to 100 uM after 1.5 hrs by calcein-AM dye based fluorescence assay; conditions: DU-145
[4] = biological target: Neuropilin-1 (Homo sapiens) (UniProt O14786); experiment: Inhibition of neuropilin-1 in human ACHN cells assessed as decrease in cell migration at 10 to 100 uM after 4 hrs by trans-well assay; format: cell-based

Sequence of Neuropilin-1 (Homo sapiens) (O14786 whole entry): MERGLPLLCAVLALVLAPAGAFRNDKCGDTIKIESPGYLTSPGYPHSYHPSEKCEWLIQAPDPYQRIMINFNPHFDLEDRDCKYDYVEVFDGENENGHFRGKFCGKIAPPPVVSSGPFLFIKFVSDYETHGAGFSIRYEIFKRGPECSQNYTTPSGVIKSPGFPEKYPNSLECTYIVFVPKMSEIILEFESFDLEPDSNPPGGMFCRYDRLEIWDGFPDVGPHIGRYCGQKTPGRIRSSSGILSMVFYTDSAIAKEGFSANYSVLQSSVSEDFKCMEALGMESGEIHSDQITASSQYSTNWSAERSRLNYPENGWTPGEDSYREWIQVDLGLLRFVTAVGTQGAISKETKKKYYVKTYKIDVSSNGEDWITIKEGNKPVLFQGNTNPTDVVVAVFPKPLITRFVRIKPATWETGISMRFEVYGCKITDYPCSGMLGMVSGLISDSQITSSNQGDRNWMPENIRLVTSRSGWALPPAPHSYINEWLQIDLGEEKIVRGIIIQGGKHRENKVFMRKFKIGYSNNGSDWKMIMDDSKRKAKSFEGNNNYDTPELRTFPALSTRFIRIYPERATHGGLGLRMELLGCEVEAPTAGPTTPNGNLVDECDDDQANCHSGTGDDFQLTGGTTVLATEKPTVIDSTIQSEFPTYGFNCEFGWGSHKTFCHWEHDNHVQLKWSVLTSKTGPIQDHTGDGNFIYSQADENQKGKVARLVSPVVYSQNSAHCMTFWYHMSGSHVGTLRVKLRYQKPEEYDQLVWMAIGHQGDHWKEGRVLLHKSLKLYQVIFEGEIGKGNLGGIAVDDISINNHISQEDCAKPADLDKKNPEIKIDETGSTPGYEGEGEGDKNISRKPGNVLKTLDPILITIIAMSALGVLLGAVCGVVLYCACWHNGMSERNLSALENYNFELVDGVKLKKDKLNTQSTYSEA

Row | Structure (SMILES) | IC50 [2] [µM] | other results
1 | N=C(N)NCCC[C@H](NC(=O)c1sccc1NS(=O)(=O)c1ccc(N)cc1)C(=O)O | < 20 | inhibition [1]: Active; inhibition [3]: Active; inhibition [4]: Active
2 | N=C(N)NC(=O)CC[C@H](NC(=O)c1sccc1NS(=O)(=O)c1ccccc1[N+](=O)[O-])C(=O)O | < 20 | 
3 | N=C(N)NCCC[C@H](NC(=O)c1sccc1NS(=O)(=O)c1cccc(NCc2ccccn2)c1)C(=O)O | < 20 | 
4 | N=C(N)NCCC[C@H](NC(=O)c1sccc1NS(=O)(=O)c1cccc(CCCN)c1)C(=O)O | < 20 | 
5 | N=C(N)NCCC[C@H](NC(=O)c1sccc1NS(=O)(=O)c1ccccc1N)C(=O)O | < 20 | 
6 | CC(=O)Nc1ccc(S(=O)(=O)Nc2ccsc2C(=O)N[C@@H](CCCNC(=N)N)C(=O)O)cc1 | < 20 | 
7 | Cc1noc(C)c1-c1cccc(S(=O)(=O)Nc2ccsc2C(=O)N[C@@H](CCCNC(=N)N)C(=O)O)c1 | < 20 | 
8 | CN1CCOc2cc(-c3cc4c(c(S(=O)(=O)Nc5ccsc5C(=O)N[C@@H](CCCNC(=N)N)C(=O)O)c3)OCC4)cnc21 | < 20 | 
9 | N=C(N)NCCC[C@H](NC(=O)c1sccc1NS(=O)(=O)c1cc2ccccc2s1)C(=O)O | < 20 | 
10 | Cc1nn(C)c(Cl)c1CNc1cccc(S(=O)(=O)Nc2ccsc2C(=O)N[C@@H](CCCNC(=N)N)C(=O)O)c1 | < 20 | 
11 | Cc1noc(C)c1-c1cc2c(c(S(=O)(=O)Nc3ccsc3C(=O)N[C@@H](CCCNC(=N)N)C(=O)O)c1)OCC2 | < 20 | 
12 | Cc1nc(CNc2cccc(S(=O)(=O)Nc3ccsc3C(=O)N[C@@H](CCCNC(=N)N)C(=O)O)c2)c(C)o1 | < 20 | 
13 | N=C(N)NCCC[C@H](NC(=O)c1sccc1NS(=O)(=O)c1cccc(C#CCN)c1)C(=O)O | < 20 | 
14 | Cc1cc(CNc2cccc(S(=O)(=O)Nc3ccsc3C(=O)N[C@@H](CCCNC(=N)N)C(=O)O)c2)n(C)n1 | < 20 | 
15 | Cc1ccc2nsnc2c1S(=O)(=O)Nc1ccsc1C(=O)N[C@@H](CCCNC(=N)N)C(=O)O | < 20 | 
16 | N=C(N)NCCC[C@H](NC(=O)c1sccc1NS(=O)(=O)c1cccc(CCc2cccnc2)c1)C(=O)O | < 20 | 
17 | N=C(N)NCCC[C@H](NC(=O)c1sccc1NS(=O)(=O)c1ccccc1[N+](=O)[O-])C(=O)O | < 20 | 
18 | N=C(N)NCCC[C@H](NC(=O)c1sccc1NS(=O)(=O)c1cc2ccccc2o1)C(=O)O | < 20 | 
19 | N=C(N)NCCC[C@H](NC(=O)c1sccc1NS(=O)(=O)c1cccc(N)c1)C(=O)O | < 20 | 

Reference: ChEMBL document CHEMBL3880430, “Arginine derivatives with NP-1 antagonistic activity” (2012)
